Assay results published in US20080161366A1, “AMINOALKYL SUBSTITUTED ARYL SULFAMIDE DERIVATIVES AND METHODS OF THEIR USE” (Wyeth, priority 2006, published 2008).
Where a name gives a salt, the structure may show the parent alone.

Target: human norepinephrine transporter (hNET) (Homo sapiens, UniProt P23975)
Experiment: hNET uptake, Protocol B: cell based norepinephrine reuptake assay using recombinant hNET (MDCK-Net6 cells)
Conditions: NE uptake (Protocol B) IC50 (nM), MDCK-Net6 cells, 3H-NE 16 nM

Sequence of human norepinephrine transporter (hNET) (P23975 whole entry): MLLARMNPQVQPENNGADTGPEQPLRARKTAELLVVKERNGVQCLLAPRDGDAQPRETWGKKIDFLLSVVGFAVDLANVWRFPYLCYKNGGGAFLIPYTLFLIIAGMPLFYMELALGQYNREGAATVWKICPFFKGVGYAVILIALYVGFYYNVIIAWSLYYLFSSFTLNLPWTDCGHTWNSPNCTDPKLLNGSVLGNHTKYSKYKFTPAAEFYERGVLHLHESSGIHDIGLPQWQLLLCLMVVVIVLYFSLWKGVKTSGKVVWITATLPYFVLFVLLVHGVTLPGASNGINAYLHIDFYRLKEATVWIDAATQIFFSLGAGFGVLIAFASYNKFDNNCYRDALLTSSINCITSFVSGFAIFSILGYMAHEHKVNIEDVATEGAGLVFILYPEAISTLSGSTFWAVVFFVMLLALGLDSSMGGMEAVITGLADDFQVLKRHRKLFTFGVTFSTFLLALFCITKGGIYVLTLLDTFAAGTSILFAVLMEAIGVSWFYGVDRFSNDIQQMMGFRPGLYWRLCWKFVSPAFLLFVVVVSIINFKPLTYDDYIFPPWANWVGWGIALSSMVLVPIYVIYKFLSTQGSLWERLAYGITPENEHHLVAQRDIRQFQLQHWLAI

Row | IC50 | SMILES
1 | 2.41 nM | CNCCCN1c2cccc(F)c2N(c2ccccc2)S1(=O)=O [Example 41, 3-(4-fluoro-2,2-dioxido-3-phenyl-2,1,3-benzothiadiazol-1(3H)-yl)-N-methylpropan-1-amine]
2 | 86.3 nM | CNCCCN1c2c(F)cccc2N(c2cccc(F)c2)S1(=O)=O [Example 42, 3-[7-fluoro-3-(3-fluorophenyl)-2,2-dioxido-2,1,3-benzothiadiazol-1(3H)-yl]-N-methylpropan-1-amine]
3 | 1320 nM | CNCCCN1c2cc(C#N)ccc2N(c2ccccc2)S1(=O)=O [Example 43, 3-[3-(methylamino)propyl]-1-phenyl-1,3-dihydro-2,1,3-benzothiadiazole-5-carbonitrile 2,2-dioxide]
4 | 4.26 nM | CNCCCN1c2ccc(F)cc2N(c2ccccc2)S1(=O)=O [Example 44, 3-(5-fluoro-2,2-dioxido-3-phenyl-2,1,3-benzothiadiazol-1(3H)-yl)-N-methylpropan-1-amine]
5 | 4.84 nM | CNCCCN1c2ccccc2N(c2cccc(F)c2F)S1(=O)=O [Example 46, 3-[3-(2,3-difluorophenyl)-2,2-dioxido-2,1,3-benzothiadiazol-1(3H)-yl]-N-methylpropan-1-amine hydrochloride]
6 | 2.73 nM | CNCCCN1c2ccccc2N(c2cc(F)cc(F)c2)S1(=O)=O [Example 47, 3-[3-(3,5-difluorophenyl)-2,2-dioxido-2,1,3-benzothiadiazol-1(3H)-yl]-N-methylpropan-1-amine hydrochloride]
7 | 2.78 nM | CNCCCN1c2ccccc2N(c2cc(F)ccc2F)S1(=O)=O [Example 48, 3-[3-(2,5-difluorophenyl)-2,2-dioxido-2,1,3-benzothiadiazol-1(3H)-yl]-N-methylpropan-1-amine hydrochloride]
8 | 147 nM | CNCCCN1c2ccccc2N(c2cccc(OC(F)(F)F)c2)S1(=O)=O [Example 49, 3-{2,2-dioxido-3-[3-(trifluoromethoxy)phenyl]-2,1,3-benzothiadiazol-1(3H)-yl}-N-methylpropan-1-amine hydrochloride]
9 | 190 nM | CNCCCN1c2ccccc2N(c2ccccc2OC(F)(F)F)S1(=O)=O [Example 50, 3-{2,2-dioxido-3-[2-(trifluoromethoxy)phenyl]-2,1,3-benzothiadiazol-1(3H)-yl}-N-methylpropan-1-amine hydrochloride]
10 | 3170 nM | CNCCCN1c2ccccc2N(c2cccc(C(F)(F)F)c2)S1(=O)=O [Example 51, 3-{2,2-dioxido-3-[3-(trifluoromethyl)phenyl]-2,1,3-benzothiadiazol-1(3H)-yl}-N-methylpropan-1-amine hydrochloride]
11 | 2.74 nM | CNCCCN1c2ccccc2N(c2ccccc2Cl)S1(=O)=O [Example 52, 3-[3-(2-chlorophenyl)-2,2-dioxido-2,1,3-benzothiadiazol-1(3H)-yl]-N-methylpropan-1-amine hydrochloride]
12 | 24.5 nM | CNCCCN1c2ccccc2N(c2cccc(Br)c2)S1(=O)=O [Example 53, 3-[3-(3-bromophenyl)-2,2-dioxido-2,1,3-benzothiadiazol-1(3H)-yl]-N-methylpropan-1-amine hydrochloride]
13 | 13.1 nM | NCCCN1c2ccccc2N(c2ccccc2F)S1(=O)=O [Example 56, 3-[3-(2-fluorophenyl)-2,2-dioxido-2,1,3-benzothiadiazol-1(3H)-yl]propan-1-amine]
14 | 2.56 nM | CCNCCCN1c2ccccc2N(c2ccccc2F)S1(=O)=O [Example 57, N-ethyl-3-[3-(2-fluorophenyl)-2,2-dioxido-2,1,3-benzothiadiazol-1(3H)-yl]propan-1-amine]
15 | 3270 nM | NCCCCN1c2ccccc2N(c2ccccc2F)S1(=O)=O [Example 58, 4-[3-(2-fluorophenyl)-2,2-dioxido-2,1,3-benzothiadiazol-1(3H)-yl]butan-1-amine]
16 | 40.2 nM | CNCCCN1c2ccccc2N(c2ccc(F)cc2Cl)S1(=O)=O [Example 60, 3-[3-(2-Chloro-4-fluorophenyl)-2,2-dioxido-2,1,3-benzothiadiazol-1(3H)-yl]-N-methylpropan-1-amine hydrochloride]
17 | 113 nM | NCCCN1c2ccccc2N(c2ccc(F)cc2Cl)S1(=O)=O [Example 61, 3-[3-(2-Chloro-4-fluorophenyl)-2,2-dioxido-2,1,3-benzothiadiazol-1(3H)-yl]propan-1-amine hydrochloride]
18 | 50.9 nM | CNCCCN1c2ccccc2N(c2ccc(F)cc2C)S1(=O)=O [Example 62, 3-[3-(4-fluoro-2-methylphenyl)-2,2-dioxido-2,1,3-benzothiadiazol-1(3H)-yl]-N-methylpropan-1-amine]
19 | 324 nM | Cc1cc(F)ccc1N1c2ccccc2N(CCCN)S1(=O)=O [Example 63, 3-[3-(4-fluoro-2-methylphenyl)-2,2-dioxido-2,1,3-benzothiadiazol-1(3H)-yl]propan-1-amine]
20 | 295 nM | CNCCCN1c2ccccc2N(c2ccc(F)cc2OC)S1(=O)=O [Example 64, 3-[3-(4-fluoro-2-methoxyphenyl)-2,2-dioxido-2,1,3-benzothiadiazol-1(3H)-yl]-N-methylpropan-1-amine]

Row | IC50 | SMILES
21 | 14.1 nM | NCCCCCN1c2ccccc2N(c2ccccc2F)S1(=O)=O [Example 65, 5-[3-(2-fluorophenyl)-2,2-dioxido-2,1,3-benzothiadiazol-1(3H)-yl]pentan-1-amine]
22 | 14.2 nM | CNCCCCCN1c2ccccc2N(c2ccccc2F)S1(=O)=O [Example 66, 5-[3-(2-fluorophenyl)-2,2-dioxido-2,1,3-benzothiadiazol-1(3H)-yl]-N-methylpentan-1-amine]
23 | 298 nM | CN(C)CCCCCN1c2ccccc2N(c2ccccc2F)S1(=O)=O [Example 67, 5-[3-(2-fluorophenyl)-2,2-dioxido-2,1,3-benzothiadiazol-1(3H)-yl]-N,N-dimethylpentan-1-amine]
24 | 84.1 nM | CNCCCN1c2ccccc2N(c2cccc(Cl)c2)S1(=O)=O [Example 68, 3-[3-(3-Chlorophenyl)-2,2-dioxido-2,1,3-benzothiadiazol-1(3H)-yl]-N-methylpropan-1-amine hydrochloride]
25 | 10.4 nM | NCCCN1c2ccccc2N(c2c(F)cccc2F)S1(=O)=O [Example 69, 3-[3-(2,6-Difluorophenyl)-2,2-dioxido-2,1,3-benzothiadiazol-1(3H)-yl]propan-1-amine hydrochloride]
26 | 277 nM | NCCCN1c2ccccc2N(c2c(F)cc(F)cc2F)S1(=O)=O [Example 70, 3-[2,2-Dioxido-3-(2,4,6-trifluorophenyl)-2,1,3-benzothiadiazol-1(3H)-yl]propan-1-amine hydrochloride]
27 | 206 nM | CNCCCN1c2ccc(-c3ccccc3)cc2N(c2ccccc2F)S1(=O)=O [Example 71, 3-[3-(2-fluorophenyl)-2,2-dioxido-5-phenyl-2,1,3-benzothiadiazol-1(3H)-yl]-N-methylpropan-1-amine hydrochloride]
28 | 259 nM | NCCCN1c2ccccc2N(c2ccc(F)cc2F)S1(=O)=O [Example 72, 3-[3-(2,4-difluorophenyl)-2,2-dioxido-2,1,3-benzothiadiazol-1(3H)-yl]propan-1-amine hydrochloride]
29 | 2.81 nM | CNCCCN1c2cccc(F)c2N(c2ccccc2F)S1(=O)=O [Example 73, 3-[4-fluoro-3-(2-fluorophenyl)-2,2-dioxido-2,1,3-benzothiadiazol-1(3H)-yl]-N-methylpropan-1-amine hydrochloride]
30 | 2.7 nM | NCCCN1c2cccc(F)c2N(c2ccccc2F)S1(=O)=O [Example 74, 3-[4-fluoro-3-(2-fluorophenyl)-2,2-dioxido-2,1,3-benzothiadiazol-1(3H)-yl]propan-1-amine hydrochloride]
31 | 4.17 nM | CNCCCN1c2ccccc2N(c2ccc(F)cc2F)S1(=O)=O [Example 75, 3-[3-(2,4-difluorophenyl)-2,2-dioxido-2,1,3-benzothiadiazol-1(3H)-yl]-N-methylpropan-1-amine hydrochloride]
32 | 5.24 nM | CNCCCN1c2c(F)cccc2N(c2ccccc2F)S1(=O)=O [Example 76, 3-[7-fluoro-3-(2-fluorophenyl)-2,2-dioxido-2,1,3-benzothiadiazol-1(3H)-yl]-N-methylpropan-1-amine]
33 | 15 nM | CNCCCN1c2ccccc2N(c2c(F)cc(F)cc2F)S1(=O)=O [Example 77, 3-[2,2-Dioxido-3-(2,4,6-trifluorophenyl)-2,1,3-benzothiadiazol-1(3H)-yl]-N-methylpropan-1-amine hydrochloride]
34 | 45 nM | CNCCCN1c2c(F)cccc2N(c2ccc(F)cc2F)S1(=O)=O [Example 78, 3-[3-(2,4-Difluorophenyl)-7-fluoro-2,2-dioxido-2,1,3-benzothiadiazol-1(3H)-yl]-N-methylpropan-1-amine hydrochloride]
35 | 9 nM | CNCCCN1c2cccc(F)c2N(c2ccc(F)cc2F)S1(=O)=O [Example 79, 3-[3-(2,4-Difluorophenyl)-4-fluoro-2,2-dioxido-2,1,3-benzothiadiazol-1(3H)-yl]-N-methylpropan-1-amine hydrochloride]
36 | 448 nM | CN(C)CCCN1c2c(F)cccc2N(c2ccc(F)cc2F)S1(=O)=O [Example 80, 3-[3-(2,4-Difluorophenyl)-7-fluoro-2,2-dioxido-2,1,3-benzothiadiazol-1(3H)-yl]-N,N-dimethylpropan-1-amine hydrochloride]
37 | 19 nM | CNCCCCN1c2ccccc2N(c2c(F)cc(F)cc2F)S1(=O)=O [Example 81, 4-[2,2-Dioxido-3-(2,4,6-trifluorophenyl)-2,1,3-benzothiadiazol-1(3H)-yl]-N-methylbutan-1-amine hydrochloride]
38 | 46 nM | CNCCCCN1c2ccccc2N(c2ccc(F)cc2)S1(=O)=O [Example 82, 4-[3-(4-Fluorophenyl)-2,2-dioxido-2,1,3-benzothiadiazol-1(3H)-yl]-N-methylbutan-1-amine hydrochloride]
39 | 2 nM | CNCCCCN1c2ccccc2N(c2c(F)cccc2F)S1(=O)=O [Example 83, 4-[3-(2,6-Difluorophenyl)-2,2-dioxido-2,1,3-benzothiadiazol-1(3H)-yl]-N-methylbutan-1-amine hydrochloride]
